From ChEMBL document CHEMBL1152926, “Terpenoid constituents of Abies chensiensis with potential anti-inflammatory activity” (J Nat Prod, 2009)
Values after ≈ are worked out from the molar mass of the structure shown.

What was measured:
RAW264.7 [1] = assay: Cytotoxicity against mouse RAW264.7 cells; type: cell-based
RAW264.7 [2] = assay: Antiinflammatory activity in mouse RAW264.7 cells assessed as inhibition of LPS-induced nitric oxide production; type: functional, cell-based

IC50 (RAW264.7 [2]) | SMILES | IC50 (RAW264.7 [1])
1.9 µg/mL (≈ 6.2 µM) | C=C[C@@](C)(O)[C@H]1C[C@@H]2[C@@]3(C)CCCC(C)(C)[C@@H]3CC[C@@]2(C)O1 | 0.6 µg/mL (≈ 1.96 µM)
9.6 µg/mL (≈ 33 µM) | C=C[C@@](C)(O)CC[C@H]1C(=C)CC[C@H]2C(C)(C)CCC[C@]12C [MANOOL] | 32.3 µg/mL (≈ 111 µM)
9.1 µg/mL (≈ 19.5 µM) | CC1=CC(O)(C[C@@H](C)C2=CC[C@@]3(C)C4=C(CC[C@]23C)[C@@]2(C)CCC(=O)C(C)(C)[C@@H]2CC4)OC1=O (some centres not stated) [NEOABIESLACTONE E] | 20 µg/mL (≈ 42.9 µM)

SMILES | IC50 (RAW264.7 [2]) | IC50 (RAW264.7 [1])
N=C(N)NN [PIMAGEDINE] | 3.4 µg/mL (≈ 45.9 µM) | 
